The assay addresses T1, ITK (Jurkat or Molt4 cells) (Homo sapiens, UniProt Q08881).
T1 construct: either human Jurkat (Clone E6-1 ATCC TIB-152) or Motl4 (ATCC CRL-1552), were plated; endogenous in cells; host or cells: Jurkat Clone E6-1 (ATCC TIB-152) or Molt4 (ATCC CRL-1552)
T1 sequence (Q08881 1-620): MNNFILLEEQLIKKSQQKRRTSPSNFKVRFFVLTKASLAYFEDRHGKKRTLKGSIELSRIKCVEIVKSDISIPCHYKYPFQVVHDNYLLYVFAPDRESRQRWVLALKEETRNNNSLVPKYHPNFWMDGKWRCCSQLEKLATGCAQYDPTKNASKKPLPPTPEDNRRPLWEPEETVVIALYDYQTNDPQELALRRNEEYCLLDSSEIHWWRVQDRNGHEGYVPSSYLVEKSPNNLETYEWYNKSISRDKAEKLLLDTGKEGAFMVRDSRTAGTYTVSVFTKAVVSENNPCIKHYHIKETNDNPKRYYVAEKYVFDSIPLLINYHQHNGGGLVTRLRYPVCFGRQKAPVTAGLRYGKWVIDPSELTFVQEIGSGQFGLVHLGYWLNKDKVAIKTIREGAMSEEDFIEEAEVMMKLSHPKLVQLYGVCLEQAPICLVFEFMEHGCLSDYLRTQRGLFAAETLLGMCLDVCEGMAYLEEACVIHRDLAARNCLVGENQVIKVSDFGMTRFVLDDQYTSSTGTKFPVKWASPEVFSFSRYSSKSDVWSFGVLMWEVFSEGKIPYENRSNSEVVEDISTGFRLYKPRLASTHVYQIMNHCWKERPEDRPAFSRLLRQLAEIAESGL
The experiment in a line: ITK Degradation MSD (Meso Scale Discovery) Assay. The following applies: 4 or 6 hrs incubation, best fit IC50 used as DC50. The class given is cell-based. Here is the method:
Compound dilution series (7-point, 5-fold dilutions in DMSO, rows B—H with replicate in Column 1/2, 3/4, 5/6, 7, and 8 at 2000× the final required concentrations were prepared in 96-well plate (Falcon, cat. no. 353077). Row A, Column 1-8 were control DMSO. The 2000× solutions ranged from 2 mM to 128 nM (final assay concentration range 1 μM to […]). The 2000×solutions were added to cells in 10 μL volume, for a final DMSO concentration of 0.5% and final assay compound concentration of 1×. For the cells, either human Jurkat (Clone E6-1 ATCC TIB-152) or Motl4 (ATCC CRL-1552), were plated at 1×10^6 cells/mL, 100 μL/well ([…]) in complete RPMI (10% FBS, 1% L-glutamine). The cells were incubated with compounds 26-29 for 4 or 6 hrs at 32° C./6% CO2.
Following incubation, plates were centrifuged at 1200 rpm for 5 min. Supernatant was removed and 50 μL of cell lysis buffer (MSD Tris lysis buffer (R60TX), complete Mini EDTA-free protease inhibitor (Sigma 11836170001), Protease Inhibitor Cocktail (Sigma, P2714), Phosphatase Inhibitor Cocktail 2 and 3 (Sigma, P5726 and P0044), Benzonase (Sigma, E1014)) was added to each well. Plate was sealed and shook at 4° C. for 30 min. Plate was centrifuged and 45 μL was removed for plate assay.
Assay plate preparation: Meso Scale Discovery (MSD) multi-array sm spot 96-well plates (Goat anti-Rabbit L^45-RA), were blocked with 3% BSA blocking buffer (3% Bovine Serum Albumin (Sigma A3059)+TBS 0.2% Tween-20) for one hour with gentle rocking at room temperature. Plate was then washed with 200 μL of 1×TBST (TBS 0.2% Tween-20) three times. After the last wash, all liquid was removed and 50 μL per well of capture antibody (abcam ITK Y402-ab32507) was added to plate at a 1:1000 dilution in blocking buffer (see above). Plate was sealed and rocked at room temperature for 2 hrs. Plate was then washed three times with 200 μL of 1×TBST. After the last wash, all liquid was removed and 45 μL of cell lysate (from above) was added to plate. Plate was sealed and rocked overnight at 4° C. The next day, cell lysates were removed, and assay plate was washed three times with 200 μL of 1×TBST. After the last wash, liquid was removed and detection antibody (CST ITK (2F12) #2380) was added at 50 μL per well at a dilution of 1:1000 in blocking buffer. Plate was sealed and rocked at room temperature for 2 hrs. Plate was washed three times with 200 μL of 1×TBST. After the last wash, all liquid was removed, MSD […] sulfo tag (R32AC-1) was diluted to 1:1000 in blocking buffer. 50 μL was added to each well on the plate. Plate was sealed and incubated at room temperature for one hour. Plate was washed three times with 200 μL of 1×TBST. After last wash, all liquid was removed and 150 μL of 1×MSD Read Buffer T (R92PC) was then added to each well for ECL read out.
For reading ECL signal, plate was read on a Meso Scale Discovery (MSD) MESO Sector S 600 plate reader. Percent ITK was then calculated as described below.
Percent ITK remaining per sample was calculated as follows: […]
Using Graphpad Prism, % ITK remaining values were plotted as a function of compound concentration. To determine DC50 and Dmax values, resulting curves were fit to the Prism curve-fitting equation “log(inhibitor) vs response−Variable slope (four parameters)” (reported best fit value IC50 used as DC50).

The structures appear in SMILES notation.

The compound `CN[C@@H](C)C(=O)N[C@H](C(=O)N1CCCC1c1nc(C(=O)c2cccc(OCCOCCOCCOCCOCCOCCC(=O)N3CC([C@@H](c4ccccc4)n4cc(NC(=O)c5n[nH]c6c5C[C@@H]5C(F)(F)[C@]5(C)C6)cn4)C3)c2)cs1)C1CCCCC1` (stereo in doubt) [Compound 4, (4aS,5aR)—N-(1-((S)-(1-(1-(3-(2-((R)-1-((S)-2-cyclohexyl-2-((S)-2-(methylamino)propanamido)acetyl)pyrrolidin-2-yl)thiazole-4-carbonyl)phenoxy)-3,6,9,12,15-pentaoxaoctadecan-18-oyl)azetidin-3-yl)(phenyl)methyl)-1H-pyrazol-4-yl)-5,5-difluoro-5a-methyl-1,4,4a,5,5a,6-hexahydrocyclopropa[f]indazole-3-carboxamide] registered a half-maximal degradation concentration (DC50) of 13.6 nM. To `CN[C@@H](C)C(=O)N[C@H](C(=O)N1CCCC1c1nc(C(=O)c2cccc(OCCOCCC(=O)N3CC([C@@H](c4ccccc4)n4cc(NC(=O)c5n[nH]c6c5C[C@@H]5C(F)(F)[C@]5(C)C6)cn4)C3)c2)cs1)C1CCCCC1` (stereo in doubt) [Compound 5, (4aS,5aR)—N-(1-((S)-(1-(3-(2-(3-(2-((R)-1-((S)-2-cyclohexyl-2-((S)-2-(methylamino)propanamido)acetyl)pyrrolidin-2-yl)thiazole-4-carbonyl)phenoxy)ethoxy)propanoyl)azetidin-3-yl)(phenyl)methyl)-1H-pyrazol-4-yl)-5,5-difluoro-5a-methyl-1,4,4a,5,5a,6-hexahydrocyclopropa[f]indazole-3-carboxamide] belongs 14.6 nM; to `CN[C@@H](C)C(=O)N[C@H](C(=O)N1C[C@@H](NC(=O)CCOCCC(=O)N2CC([C@@H](c3ccccc3)n3cc(NC(=O)c4n[nH]c5c4C[C@@H]4C(F)(F)[C@]4(C)C5)cn3)C2)C[C@H]1C(=O)N[C@@H]1CCCc2ccccc21)C1CCCCC1` [Compound 1], 251 nM; to `CN[C@@H](C)C(=O)N[C@H](C(=O)N1C[C@@H](NC(=O)CCOCCOCCOCCOCCC(=O)N2CC([C@@H](c3ccccc3)n3cc(NC(=O)c4n[nH]c5c4C[C@@H]4C(F)(F)[C@]4(C)C5)cn3)C2)C[C@H]1C(=O)N[C@@H]1CCCc2ccccc21)C1CCCCC1` [Compound 2, (4aS,5aR)—N-(1-((S)-(1-(16-(((3S,5S)-1-((S)-2-cyclohexyl-2-((S)-2-(methylamino)propanamido)acetyl)-5-(((R)-1,2,3,4-tetrahydronaphthalen-1-yl)carbamoyl)pyrrolidin-3-yl)amino)-16-oxo-4,7,10,13-tetraoxahexadecanoyl)azetidin-3-yl)(phenyl)methyl)-1H-pyrazol-4-yl)-5,5-difluoro-5a-methyl-1,4,4a,5,5a,6-hexahydrocyclopropa[f]indazole-3-carboxamide], 79.7 nM. For `CN[C@@H](C)C(=O)N[C@H](C(=O)N1CCC[C@H]1c1nc(C(=O)c2cccc(OCCOCCOCCOCCOCCC(=O)N3CC([C@@H](c4ccccc4)n4cc(NC(=O)c5n[nH]c6c5C[C@@H]5C(F)(F)[C@]5(C)C6)cn4)C3)c2)cs1)C1CCCCC1` [Compound 6, (4aS,5aR)—N-(1-((S)-(1-(1-(3-(2-((S)-1-((S)-2-cyclohexyl-2-((S)-2-(methylamino)propanamido)acetyl)pyrrolidin-2-yl)thiazole-4-carbonyl)phenoxy)-3,6,9,12-tetraoxapentadecan-15-oyl)azetidin-3-yl)(phenyl)methyl)-1H-pyrazol-4-yl)-5,5-difluoro-5a-methyl-1,4,4a,5,5a,6-hexahydrocyclopropa[f]indazole-3-carboxamide], it took 14 nM to reach half-maximal degradation (DC50).

`CN[C@@H](C)C(=O)N[C@H](C(=O)N1CCC[C@H]1c1nc(C(=O)c2cccc(OCCCCN3CC([C@@H](c4ccccc4)n4cc(NC(=O)c5n[nH]c6c5C[C@@H]5C(F)(F)[C@]5(C)C6)cn4)C3)c2)cs1)C1CCCCC1` [Compound 7, (4aS,5aR)—N-(1-((S)-(1-(4-(3-(2-((S)-1-((S)-2-cyclohexyl-2-((S)-2-(methylamino)propanamido)acetyl)pyrrolidin-2-yl)thiazole-4-carbonyl)phenoxy)butyl)azetidin-3-yl)(phenyl)methyl)-1H-pyrazol-4-yl)-5,5-difluoro-5a-methyl-1,4,4a,5,5a,6-hexahydrocyclopropa[f]indazole-3-carboxamide] showed a half-maximal degradation concentration (DC50) of 4.77 nM. For `CN[C@@H](C)C(=O)N[C@H](C(=O)N1CCC[C@H]1c1nc(C(=O)c2cccc(OCCCN3CC([C@@H](c4ccccc4)n4cc(NC(=O)c5n[nH]c6c5C[C@@H]5C(F)(F)[C@]5(C)C6)cn4)C3)c2)cs1)C1CCCCC1` [Compound 8, (4aS,5aR)—N-(1-((S)-(1-(3-(3-(2-((S)-1-((S)-2-cyclohexyl-2-((S)-2-(methylamino)propanamido)acetyl)pyrrolidin-2-yl)thiazole-4-carbonyl)phenoxy)propyl)azetidin-3-yl)(phenyl)methyl)-1H-pyrazol-4-yl)-5,5-difluoro-5a-methyl-1,4,4a,5,5a,6-hexahydrocyclopropa[f]indazole-3-carboxamide] the value was 49 nM. For `CN[C@@H](C)C(=O)N[C@H](C(=O)N1CCC[C@H]1c1nc(C(=O)c2cccc(OCCCCCCN3CC([C@@H](c4ccccc4)n4cc(NC(=O)c5n[nH]c6c5C[C@@H]5C(F)(F)[C@]5(C)C6)cn4)C3)c2)cs1)C1CCCCC1` [Compound 9, (4aS,5aR)—N-(1-((S)-(1-(6-(3-(2-((S)-1-((S)-2-cyclohexyl-2-((S)-2-(methylamino)propanamido)acetyl)pyrrolidin-2-yl)thiazole-4-carbonyl)phenoxy)hexyl)azetidin-3-yl)(phenyl)methyl)-1H-pyrazol-4-yl)-5,5-difluoro-5a-methyl-1,4,4a,5,5a,6-hexahydrocyclopropa[f]indazole-3-carboxamide] the value was 52.9 nM; for `CN[C@@H](C)C(=O)N[C@H](C(=O)N1CCC[C@H]1c1nc(C(=O)c2cccc(OCCCCCN3CC([C@@H](c4ccccc4)n4cc(NC(=O)c5n[nH]c6c5C[C@@H]5C(F)(F)[C@]5(C)C6)cn4)C3)c2)cs1)C1CCCCC1` [Compound 10, (4aS,5aR)—N-(1-((S)-(1-(5-(3-(2-((S)-1-((S)-2-cyclohexyl-2-((S)-2-(methylamino)propanamido)acetyl)pyrrolidin-2-yl)thiazole-4-carbonyl)phenoxy)pentyl)azetidin-3-yl)(phenyl)methyl)-1H-pyrazol-4-yl)-5,5-difluoro-5a-methyl-1,4,4a,5,5a,6-hexahydrocyclopropa[f]indazole-3-carboxamide], 22.2 nM.

For orientation: DC50 means the concentration at which degradation of the target reaches its halfway point. A lower DC50 goes with a more potent degrader.

The values above are taken from patent US20250002489A1, “BIFUNCTIONAL COMPOUNDS FOR DEGRADING ITK VIA UBIQUITIN PROTEOSOME PATHWAY” (NURIX THERAPEUTICS, INC., priority 2021, published 2025).
